According to patent publication US6630447B2, “Peptide inhibitors of LFA-1/ICAM-1 interaction” (University of New Mexico, priority 2000, dated 2003):
Where two headings read alike, the source gives them in different places. Bridge positions count the residues as written; N and C are the ends. Peptide text beside a SMILES is read from it.

Columns and labels:
[1] = system: LFA-1/ICAM-1 mediated JY cell aggregation; type: cell-based; details: for Percent Inhibition: (1 − (Observed/Max) × 100); for Percent Inhibition / Percent JY Aggregation: (SD) in parentheses; for Inhibition of LFA-1/ICAM-1 mediated JY cell aggregation compared to SEQ ID NO: 1 (in words): substituted derivatives of the consensus peptide
Method: LFA-1 dependent cell aggregation has been previously studied using an aggregation assay it with a variety of leukocyte subclasses and cell lines (Larson et al., 1990; Wang et al., 1988; Larson et al., 1997). JY cells were obtained form American Type Tissue Culture Collection and were maintained in RPMI 1640 supplemented with 10% FBS at 37° C. in 5% CO2. Aggregation of cells was measured in a homotypic aggregation assay using ICAM-1 as a stimuli. JY cells were washed twice with serum free medium and resuspended at a concentration of 4×10^5 is cells/ml. Cells were preincubated with the desired concentration of peptide for 15 min at room temperature. In a final volume of 100 μl, 50 μl of cells and peptide were seeded in 96 well flat bottomed microtiter plates. Cells were allowed to aggregate at 37° C. in humidified air with 5% CO2. Cells were visualized and counted by inverted phase contrast microscopy at the time indicated. Within each well of aggregates as well as the total number of free (single) cells were counted. percent aggregation was determined by the following equation:
Percent aggregation=100×(1−number of free cells/total number of cells)
The consensus peptide (SEQ ID NO: 1) and the randomized sequence CLMIRMLRC (SEQ ID NO: 33), cyclizied in the disulfide-linked form, were synthesized by Biopeptide (San Diego, Calif.) and tested in a screening assay for the ability to inhibit aggregation of the cell line JY, which aggregates in an LFA-1/CAM-1 dependent manner. Aggregation measurements are relatively rapid and quantifiable. Furthermore, small volumes are used minimizing peptide consumption. Finally, cell aggregation in vitro depends on a multivalent LFA-1/ICAM-1 interaction. A peptide that is identified as being able to block cell aggregation in vitro is, therefore, likely to have affinity and off-rate characteristics that would make it an effective in vivo inhibitor, since cell—cell interaction in vivo also involves multivalent LFA-1/ICAM-1 interaction. Using this assay, the consensus peptide sequence has an IC50 of 500 μM (FIG. 1).
Peptides are initially tested for their ability to block LFA-1/ICAM dependent aggregation of the cell line JY (Wang et al., 1988; Larson et al., 1997). Peptides are preferably tested over a range of concentrations ([…], for example) and the concentration leading to half maximal inhibition of aggregation (IC50) is determined for all the peptide sequences.

[2] = system: neutrophil binding to stimulated endothelial cells; test: Firm attachment of neutrophils to stimulated endothelial cells in a parallel plate flow chamber; type: cell-based, human; details: for Percent Inhibition of firm attachment of neutrophils: (1 − (Observed/Maximum)) × 100; for Percent Inhibition of firm attachment of neutrophils / Firmly attached neutrophils, Cells/mm^2: (SD) in parentheses; for Neutrophil-binding to endothelium (in words): physiologic flow conditions; for Firmly attached neutrophils, Cells/mm^2: physiologic flow
Excerpt: An assay has been developed that provides an in vitro model of neutrophils or APL cells binding to activated endothelium. The binding of APL cells using a parallel plate flow chamber recapitulates events that occur in retinoic acid syndrome (Larson et al., 1997; Brown et al., 1999). A parallel plate flow chamber simulates the physiologic flow conditions in blood and adhesive interactions in post-capillary venules. Post-capillary venules are the physiologically relevant locations of leukemia cell-endothelial cell interaction and extravasation. […] Monolayers of endothelial cells are placed in the parallel plate flow chamber, and the leukemic cells are pumped through the chamber at physiologic flow rates. The interaction between the flowing leukemia cells and the endothelium are videotaped microscopically, and the number of rolling, firmly adhered and transmigrated leukemia cells is quantified by computer-assisted image analysis.
For investigating neutrophil binding, neutrophils are isolated from heparin anticoagulated venous blood of healthy adult donors by centrifugation on Ficoll-Hypaque density gradients as described by Simon et al. (1992). Isolated neutrophils are suspended at a concentration of 10^7/ml in Hanks' Balanced Salt Solution supplemented with 10 mmol/L HEPES, pH 7.4 and 0.2% human serum albumin (Armour Pharmaceutical, Kankakee, Ill.) and used within 2 hours of preparation. Neutrophils are kept on ice and resuspended in RPMi pre-warmed to 37° C. immediately before use.

[3] = Solubility of peptides in aqueous solution; type: physicochemical
Excerpt: An alternative derivative peptide strategy was undertaken in which the consensus sequence peptide was subjected to an alanine-screening procedure as described by Cunningham and Wells, 1989. Peptides cyclizied in the disulfide-linked form were synthesized by Biopeptide (San Diego, Calif.) wherein an alanine was substituted at each position in the hepatapeptide LLRMRSI of the consensus sequence SEQ ID NO: 1, and each peptide was examined in parallel for its ability to inhibit LFA-1/ICAM-1 mediated JY cell aggregation. Six of the seven peptides were soluble in aqueous solution. SEQ ID NO: 376, representing a substitution of the arginine in position 4 of SEQ ID NO: 1, was not soluble at […] and could not be tested. […] The randomized sequence CLRLSRIMC (SEQ ID NO: 56) was used as a control.

[4] = Table 3, alanine-substituted derivations
[5] = Table 4, homologous amino acid substitutions

Row | Compound | Percent Inhibition ([1]; Table 3, JY cell aggregation) | Percent JY Aggregation [1, 4] | Inhibition of LFA-1/ICAM-1 mediated JY cell aggregation compared to SEQ ID NO: 1 (in words) [1] | Percent Inhibition ([1]; Table 4, JY cell aggregation) | Percent JY Aggregation [1, 5] | other results
1 | CLARMRSIC (OTHER INFORMATION: Description of Artificial Sequence:Synthetic) [SEQ ID NO: 35] | 9(22) Percent | 69(17) Percent | Loss of inhibitory function |  |  | 
2 | CALRMRSIC (OTHER INFORMATION: Description of Artificial Sequence:Synthetic) [SEQ ID NO: 34] | 7(19) Percent | 71(15) Percent | Loss of inhibitory function |  |  | 
3 | CLMIRMLRC (OTHER INFORMATION: Description of Artificial Sequence:Synthetic) [SEQ ID NO: 33, reference compound] |  |  |  |  |  | Aggregation of JY cells (FIG. 1, in words) ([1]; concentration of 1 mM): ineffective
4 | CLLRMKSAC (OTHER INFORMATION: Description of Artificial Sequence:Synthetic) [SEQ ID NO: 46] |  |  | greater inhibition | 90(4) Percent | 6(2) Percent | Percent Inhibition of firm attachment of neutrophils [2]: 66(0) Percent; Inhibition of attachment of neutrophils to activated endothelium compared to SEQ ID NO: 1 (in words) ([2]; parallel plate flow chamber): greater inhibition; Neutrophil-binding to endothelium (in words) ([2]; parallel plate flow chamber): block; Firmly attached neutrophils, Cells/mm^2 [2]: 283(0) Cells/mm^2
5 | CLVRMRSAC (OTHER INFORMATION: Description of Artificial Sequence:Synthetic) [SEQ ID NO: 41] |  |  |  | 0(1) Percent | 55(1) Percent | 
6 | CLLRMRSAC (OTHER INFORMATION: Description of Artificial Sequence:Synthetic) [SEQ ID NO: 40] | 61(17) Percent | 29(13) Percent | more potent antagonist |  |  | 
7 | CC[C@H](C)[C@@H]1NC(=O)[C@H](CCCNC(=N)N)NC(=O)[C@H](CO)NC(=O)[C@H](CC(C)C)NC(=O)[C@H](CCCNC(=N)N)NC(=O)[C@H](CC(C)C)NC(=O)[C@@H](N)CSSC[C@@H](C(=O)O)NC(=O)[C@H](CCSC)NC1=O [SEQ ID NO: 56, CLRLSRIMC, reference compound] (H-CLRLSRIMC-OH; disulfide 1-9 (inferred)) |  |  |  |  |  | Aqueous solubility relative to randomized sequence SEQ ID NO: 33 [3]: greater aqueous solubility
8 | CLLKMRSAC (OTHER INFORMATION: Description of Artificial Sequence:Synthetic) [SEQ ID NO: 45] |  |  | greater inhibition | 94(3) Percent | 3(2) Percent | 
9 | CC[C@H](C)[C@@H]1NC(=O)[C@H](CO)NC(=O)[C@H](CCCNC(=N)N)NC(=O)[C@H](CCSC)NC(=O)[C@H](CCCNC(=N)N)NC(=O)[C@H](CC(C)C)NC(=O)[C@H](CC(C)C)NC(=O)[C@@H](N)CSSC[C@@H](C(=O)O)NC1=O [SEQ ID NO: 1, CLLRMRSIC] (H-CLLRMRSIC-OH; disulfide 1-9) | 46(11) Percent | 41(8) Percent |  | 45(9) Percent | 30(5) Percent | Percent Inhibition of firm attachment of neutrophils [2]: 47(15) Percent; Neutrophil-binding to endothelium (in words) ([2]; parallel plate flow chamber): block; Firmly attached neutrophils, Cells/mm^2 [2]: 439(120) Cells/mm^2; Aggregation of JY cells (FIG. 1, in words) ([1]; titration of 100 μM to 1 mM): inhibited
10 | CLLRMASIC (OTHER INFORMATION: Description of Artificial Sequence:Synthetic) [SEQ ID NO: 38] | 11(12) Percent | 68(9) Percent | Loss of inhibitory function |  |  | 
11 | CLIRMRSAC (OTHER INFORMATION: Description of Artificial Sequence:Synthetic) [SEQ ID NO: 44] |  |  | greater inhibition | 93(3) Percent | 4(2) Percent | 
12 | CLLRMRSLC (OTHER INFORMATION: Description of Artificial Sequence:Synthetic) [SEQ ID NO: 47] |  |  |  | −12(13) Percent | 61(7) Percent | 
13 | CVLRMRSAC (OTHER INFORMATION: Description of Artificial Sequence:Synthetic) [SEQ ID NO: 42] |  |  |  | 56(6) Percent | 24(3) Percent | 
14 | CILRMRSAC (OTHER INFORMATION: Description of Artificial Sequence:Synthetic) [SEQ ID NO: 43] |  |  | greater inhibition | 92(9) Percent | 4(5) Percent | 
15 | CLLRMRAIC (OTHER INFORMATION: Description of Artificial Sequence:Synthetic) [SEQ ID NO: 39] | 27(21) Percent | 56(16) Percent | no significant effect |  |  | 
16 | CLLRMRSVC (OTHER INFORMATION: Description of Artificial Sequence:Synthetic) [SEQ ID NO: 48] |  |  | greater inhibition | 92(3) Percent | 4(1) Percent | 
17 | CLLRARSIC (OTHER INFORMATION: Description of Artificial Sequence:Synthetic) [SEQ ID NO: 37] | 5(14) Percent | 72(11) Percent | Loss of inhibitory function |  |  | 
18 | CC[C@H](C)[C@@H]1NC(=O)[C@H](CO)NC(=O)[C@H](CCCNC(=N)N)NC(=O)[C@H](CCSC)NC(=O)[C@H](C)NC(=O)[C@H](CC(C)C)NC(=O)[C@H](CC(C)C)NC(=O)[C@@H](N)CSSC[C@@H](C(=O)O)NC1=O [SEQ ID NO: 36, CLLAMRSIC] (H-CLLAMRSIC-OH; disulfide 1-9) |  |  | Loss of inhibitory function |  |  | Solubility in aqueous solution ([3]; at 1 nm): Not Soluble
